Several values for one entry are separate records, joined by “and”; a condition that tells them apart may be missing. Equal entries are not always repeated.
What was measured:
[1] = tested on: heparin-induced bleeding in rat; experiment: Tail cut bleeding test in heparinized rat; type: in vivo; details: for IHT (hemorrhage time), Mean / IHT (hemorrhage time), individual rats: Example 35, betaine 10 mg/kg and/or heparin 5 mg/kg s.c. 1 hour prior to testing
Experimental: This example determined the effect of betaine on hemorrhage time in a heparinized rat. Forty male Wistar rats were purchased from Charles River, France and were acclimated for one week prior to testing. Each animal was weighed prior to testing (weights ranged from 225 to 275 g, mean weight=245 g) and the group of 40 rats was further divided into 4 groups of 10 rats each. One group acted as a control group and each rat in this group received a subcutaneous injection of saline 1 hour prior to testing. The second group received a 10 mg/kg subcutaneous injection of betaine 1 hour prior to testing. The third group received a 5 mg/kg subcutaneous injection of heparin 1 hour prior to testing and the last group received a subcutaneous injection consisting of 5 mg/kg heparin plus 10 mg/kg betaine 1 hour prior to testing. The rats were anesthetized by intramuscular injection of Nesdonal (200 mg/kg). The products were then injected subcutaneously in the abdomen one hour before the tail cut induced bleeding test. For the group receiving the combined heparin/betaine (group 4) injections, the heparin and betaine were injected using different syringes at different sites of administration (left and right sides of the abdomen) in order to avoid any direct reactions between the two substances.
The tail of the anaesthetized rat was dipped for 5 minutes in a water bath at 37° C. in order to induce a dilation of the peripheral vessels. The tail was then removed from the water bath and sectioned at 10-15 mm from the extremity. The chronometer was then started. The IHT is defined as the time, in seconds, between the tail section and the end of the hemorrhage or bleeding. The end of hemorrhage is defined as the moment when the last drop of blood is collected from the tail and when no other drop is observed during 180 seconds. The amount of blood was estimated by visual inspection. […] Betaine has no significant effect on bleeding time and combined use of betaine with heparin almost restored the bleeding time to normal, thereby indicating an antidote-like activity of betaine against heparin.
This example investigated the effect of delayed betaine administration on active heparin-induced bleeding (antidote type administration) in a rat. Twelve male Wistar rats were purchased from Charles River, France and were acclimated for one week prior to testing. Each rat was weighed prior to testing (weights ranged from 245-280 g with a mean of 260 g) and the group of twelve was divided into 3 subgroups. Three rats were in the control group which received two saline injections, one at T0, one at T0+45 minutes. Three rats were in the […] group which received one injection of heparin (5 mg/kg) at T0. Six rats were in the antidote group which received a heparin injection (5 mg/kg) at T0, and a betaine injection (10 mg/kg) at T0+45 minutes. […] However, at the end of the bleeding experiments, blood was sampled by intracardiac puncture on Na-citrate (3.8%, 1:10) and plasmas of the collected blood samples were kept at −20° C. for future biological assays. Chemical products were also identical.
This example investigated the effect of delayed betaine administration in an antidote type administration inhibited the bleeding time and volume of blood loss induced by heparin treatment in a rat. Twenty male Wistar rats were purchased from Charles River, France and were acclimated for one week prior to the tests. Each rat was weighed prior to testing (weights ranged from 240-340 g with a mean weight of 275 g) and divided into 2 groups of 10 animals each. One group received an injection of heparin (5 mg/kg) at T0. The second group received a heparin injection (5 mg/kg) at T0, and a betaine injection (10 mg/kg) at T0+30 minutes. Both groups were subjected to a bleeding test at T0+60 minutes. The testing was performed using the previously described methodology with slight modifications. The tails were sectioned at 5-8 mm from the extremity. […]

[2] = Azure A method, in vitro binding of betaine to heparin
Experimental: This experiment utilized stock solutions of azure A, heparin, betaine, and a betaine-heparin combination in order to determine in vitro binding of betaine to Heparin. The stock solution of azure A was prepared at 4×10^−5 mol L^−1 by solubilizing 58.35 mg azure A in 50 ml of sterile injectable water. Next, 10 ml of this solution was diluted in 90 ml of sterile injectable water. The resulting solution was diluted again by taking 10 ml of this solution and diluting it in 90 ml of sterile injectable water. Finally, the resulting solution is filtered on Watman paper and aliquots of 4 ml are realized. The stock solution of Heparin was prepared by diluting the manufacturer-supplied stock solution (5000 UI/ml having ±150 UI/mg), (LEO Pharma, Ballerup, Denmark). One ml of this supplied solution was diluted in 499 ml of sterile injectable water in order to obtain a 10 UI/ml in final concentration. The betaine stock solution was prepared by diluting betaine in sterile injectable water in order to obtain a final concentration of 10 mg/ml. The Heparin-betaine combination stock solution was prepared by mixing 12 ml of the betaine stock solution prepared as noted above with 14.4 ml of the manufacturer-supplied Heparin stock solution (corresponding to 120 mg of betaine and 480 mg Heparin). This mixture was agitated for 2 minutes while mixing and then incubated for 10 minutes at 20° C. The final combination solution is then prepared by taking 1 ml of the solution after incubation and diluting it in 499 ml of sterile injectable water.
Each stock solution was then tested at six dilutions for its effect on heparin binding to azure A dye. The first dilution consisted of 0 μl solution, 400 μl water and 4 ml azure A solution. The second dilution consisted of 80 μl solution, 320 μl water and 4 ml azure A solution. The third dilution consisted of 160 μl solution, 240 μl water and 4 ml azure A solution. The fourth dilution consisted of 240 μl solution, 160 μl water and 4 ml azure A solution. The fifth dilution consisted of 320 μl solution, 80 μl water and 4 ml azure A solution. The sixth dilution consisted of 400 μl solution, 0 μl water and 4 ml azure A solution. Each dilution was then subjected to the azure A method which is a rapid and simple spectrophotometric method for determining heparin concentration following the formation of a soluble complex between heparin and azure A dye. Chemically, azure A is formed by 3 benzene nuclei and a terminal N^+. This soluble complex changes the typically blue color of the azure dye to purple. The principle of the test is based on the spectrophotometric absorption of the heparin/azure A dye complex at 632 nm. Heparin binding to azure A results in lowered absorbance and the solution gradually turns deeper purple as heparin concentration increases. In the presence of a substance which binds to heparin (e.g., protamine), azure A retains its blue color and absorbance remains constant. The results of this test are provided in the following table which illustrates that no significant change in the absorbance of azure A occurs when betaine is combined with heparin. However, Heparin alone has a significant effect on azure A absorption.

blood cells = experiment: Blood cell counts; type: in vivo, rat; details: rat; glycine betaine 5 mg/kg, acetylsalicylic acid 100 mg/kg, heparin 2 mg/kg
[3] = Example 36, heparin 5 mg/kg at T0, betaine 10 mg/kg at T0+45 minutes, bleeding test at T0+75 minutes
[4] = Example 37, heparin 5 mg/kg at T0, betaine 10 mg/kg at T0+30 minutes, test at T0+60 minutes
[5] = Heparin UI/ml (reference) 2, second dilution, 80 μl stock solution
[6] = Heparin UI/ml (reference) 4, third dilution, 160 μl stock solution
[7] = Heparin UI/ml (reference) 6, fourth dilution, 240 μl stock solution
[8] = Heparin UI/ml (reference) 8, fifth dilution, 320 μl stock solution
[9] = Heparin UI/ml (reference) 10, sixth dilution, 400 μl stock solution

Absorbance of azure A at 632 nm [2, 5]	Absorbance of azure A at 632 nm [2, 6]	Absorbance of azure A at 632 nm [2, 7]	Absorbance of azure A at 632 nm [2, 8]	Absorbance of azure A at 632 nm [2, 9]	Number of platelets (blood cells)	Number of red corpuscles (blood cells)	Number of white corpuscles (blood cells)	Compound	IHT (hemorrhage time), Mean [1] [s]	IHT (hemorrhage time), individual rats [1]	Bleeding Time, individual rats [1, 3]	Bleeding time, Mean [1, 3] [s]	Bleeding Time, individual rats [1, 4]	Bleeding time, Mean [1, 4] [s]	Volume (blood loss), Mean [1, 4] [µL]	Volume (blood loss), individual rats [1, 4]	Volume of blood loss by visual inspection ([1]; Example 36, antidote group versus heparin group)
1.0608	0.8399	0.5797	0.358	0.205	777.33 ± 6.43 10^9	6.20 ± 0.20 10^12	5.80 ± 0.10 10^9	Heparin	690.9	679 s and 767 s and 680 s and 734 s and 702 s and 663 s and 735 s and 567 s	658 s and 597 s and 533 s	596	400 s and 345 s and 405 s and 370 s and 290 s and 265 s and 350 s and 300 s and 315 s and 275 s	331.5	1294	1650 μl and 1300 μl (2×) and 1800 μl and 1380 μl and 1200 μl and 940 μl and 1140 μl and 1130 μl and 1100 μl	
1.241	1.213	1.1937	1.1612	1.154	804.67 ± 20.03 10^9	6.19 ± 0.25 10^12	4.43 ± 0.32 10^9	C[N+](C)(C)CC(=O)O [Glycine betaine]	169.9	166 s and 180 s and 162 s and 173 s and 194 s and 203 s and 159 s and 142 s and 123 s and 197 s							significantly reduced
